Experimental findings from PMC11134387, “Cancer-Stem-Cell Phenotype-Guided Discovery of a Microbiota-Inspired Synthetic Compound Targeting NPM1 for Leukemia” (JACS Au, 2024) are described below.

The structures appear in SMILES notation.

What is called inhibition is the share of the control response that was lost under treatment. A word on the melting point: it is the temperature of the solid-liquid transition. What is called viability is the share of living cells, or the viability signal relative to a control.

Data set [1] is described as follows: Plasma protein binding, equilibrium dialysis (RED). Type of data set: in vitro ADME. The conditions noted are these: mouse serum. How it is done: Based on the encouraging results obtained in ex vivo models of AML, we further assessed the therapeutic potential of the new NPM1 inhibitor in vivo. Prior to the evaluation of the compound in an animal model of AML, in vivo pharmacokinetic studies were addressed. Following a single intraperitoneal administration of UCM-13369 at a dose of 25 mg/kg, levels of 200–600 μg/L were detected in mouse peripheral blood up to 6 h (Figure 6A). Plasma protein binding of the compound in mouse serum was measured using an equilibrium dialysis assay, indicating a bound fraction of 83 ± 1%. Next, the efficacy of the compound was evaluated in immunodeficient mice after injection of OCI-AML3-ffLuc-GFP cells as an AML animal model. […]
coupled to a liquid nanochromatography Easy nLC 1200 System (Thermo Scientific).
Once digested, mutant NPM1 C+ C-end sample w as injected into a EASY-Spray™ C18 column, and digestion peptides were separated by using a lineal phase gradi ent (A: 0.1% formic acid in water; B: 20% acetonitrile, 0.1% formic acid in water) for 120 min. Spectra were acquired in DDA m ode, analyzing the 10 higher intensity parent ions in each cycl e.
Proteome Discoverer (Thermo Scientific) was used to align the spectra with the C-end […]
Random exclusion of AIRs was set to 2%. […] Clusters were classifi ed according to H ADDOCK score and stru ctures w er e analyzed with UCSF ChimeraX).10 […]
On the technique in general: Equilibrium dialysis compares concentrations on both sides of a semipermeable membrane.

In data set [2] the test system is HCT-116-derived colonospheres. Briefly: Formation of HCT-116-derived colonospheres (CSC tumorspheres). Type of data set: cell-based. To be noted: Homo sapiens, HCT-116; @10 µM; read-out: Inhibition of tumorsphere formation (%) HCT-116. As to the method:
(§1) (BD Biosciences, Franklin Lakes, NJ, USA). All cells were maintained at 37 °C in a humidified incubator in an atmosphere of 5% CO2, and passaged every 2–3 days.
(§2) Additionally, they were cultured using RPMI media (Gibco/Life Technologies; Grand […]
(§3) Colonospheres, mamospheres and colony formation unit assays. 30.000 cells per well of MCF-7 cells (mamos pheres), HCT-116 cells (colonospheres) and CD34+ cells from patients (colony formation units) were seeded in serum free non- adherent medium or […]
(§4) MethoCult (Stem Cell). […]

For data set [3], the system named is MCF-7-derived mamospheres. Briefly: Formation of MCF-7-derived mamospheres (CSC tumorspheres). The data set is classed as cell-based. The conditions noted are these: Homo sapiens, MCF7; @10 µM; read-out: Inhibition of tumorsphere formation (%) MCF-7. How it is done: as §1, §2, §3, §4
A further data set relates to MCF-7. Kind of data set: Cytotoxic effect in breast tumor cell line (MTT). The conditions noted are these: Homo sapiens, MCF7, read-out: Viability (%) MCF-7, @10 µM.
The subject of another data set is HCT-116. Kind of data set: Cytotoxic effect in colon tumor cell line (MTT). To be noted: Homo sapiens, HCT-116, read-out: Viability (%) HCT-116, @10 µM.

Consider `CC(C)NCC(O)COc1cccc2ccccc12` (stereo not drawn) [Propranolol, reference compound], for which the “Plasma protein binding, bound fraction” value in data set [1] is on record as 86±2%.
Compound `COc1ccc([C@H]2Oc3ccccc3[C@@H](CN)[C@@H]2C(=O)NCC2CC2)cc1` [10a] gave a melting point of 175 to 177 °C. For the same compound, in data set [2], the inhibition at 10 µM amounted to 2 ± 1%. Besides, in data set [3], the inhibition at 10 µM turned out to be 4 ± 2%. In addition, the viability at 10 µM with MCF-7 came to 89 ± 6%. The viability at 10 µM in the data set on HCT-116 was 61 ± 8%.
